Tests used:
[1] = system: human lung cancer cells (H358); test: cell death in lung cancer spheroids; assay type: cell-based; settings: 24 hour exposure, increasing doses
Experimental: (§1) The respective cells were individually cultured in a growth medium prepared using RPMI-1640 medium containing 11.1 mM D-glucose with 10% fetal bovine serum, 10 mM HEPES, 2 mM L-glutamine, 1 mM sodium pyruvate, 0.05 mM 2-mercaptoethanol, and Antibiotic-Antimycotic. These cells were maintained in T75 tissue culture flasks in a humidified incubator at 37° C. and 5% CO2. The media were changed on a third day after cell plating, and the cells were passaged on day 5 by trypsinization.
(§2) Custom-made micromolds with 100 μm diameter wells were loaded with the cells (U.S. Pat. No. 8,735,154, incorporated by reference herein). The media were changed every day by partial replacement. Cell aggregates were allowed to form in the micromolds for 72 hours and then were transferred to a 100 mm non-treated tissue culture dishes for 3 additional days. The spheroids were passed through 70 μm and 100 μm cell strainers (#3431751 and #43152, Corning, Tewksbury, Mass.) and maintained in HEPES Balanced Salt Solution comprised of: 20 mM HEPES, 114 mM NaCl, 4.7 mM KCl, 1.2 mM KH2PO4, 1.16 mM MgSO4, 2.5 mM CaCl2, 25.5 mM NaHCO3 and 0.2% bovine serum albumin (fatty acid free), pH 7.2.
The lymphomas treatment methods used were identical to those described in Example 2 relative to the pediatric leukemia cells, whereas the lung cancer treatment method was the same as described in Example 1.

[2] = system: human ovarian cancer cells (A1847); test: cell death in ovarian cancer spheroids; assay type: cell-based; settings: 24 hour exposure, increasing doses
Experimental: as §1, §2
(§3) The cells were treated and tested as set forth in Example 1.

[3] = system: human prostate cancer cells (22rv1); test: cell death in prostate cancer spheroids; assay type: cell-based; settings: 24 hour exposure, increasing doses
Experimental: as §1, §2, §3

ovarian cancer cells = settings: low doses of doxorubicin alone (up to 0.158 μM)
Experimental: In this test, the synergism of GZ17-6.02 with doxorubicin (a common chemotherapy drug) was tested on ovarian cancer cells. In this test, increasing doses of doxorubicin were administered to ovarian cancer spheroids and cell deaths were measured, as described in Example 1. The protocol involved testing doxorubicin alone at various dosages (FIG. 8, doxorubicin alone—closed circles), with comparative tests using the various dosages of doxorubicin in combination with either 0.2 mg/mL (FIG. 8 open circles) or 0.4 mg/mL (FIG. 8 closed triangles) GZ17-6.02. Additionally, the induced cell death results from use of 0.2 mg/mL GZ17-6.02 alone (FIG. 8, line A) and 0.4 mg/mL GZ17-6.02 alone (FIG. 8, line B) were determined.

| Structure (SMILES) | cell death / anticancer effect (cell number) [1] | cell death / anticancer effect (cell number) [2] | cell death / anticancer effect (cell number) [3] | cell death, doxorubicin alone (ovarian cancer cells) |
| --- | --- | --- | --- | --- |
| CC1=NCCc2c1[nH]c1cc(O)ccc21.Cl [harmalol hydrochloride] | demonstrated anticancer effects | demonstrated anticancer effects | demonstrated anticancer effects | – |
| COc1cccc2c1C(=O)c1c(O)c3c(c(O)c1C2=O)C[C@@](O)(C(=O)CO)C[C@@H]3O[C@H]1C[C@H](N)[C@H](O)[C@H](C)O1 [doxorubicin] | – | – | – | ineffective |
| COc1cccc(C=O)c1O [O-vanillin] | demonstrated anticancer effects | demonstrated anticancer effects | demonstrated anticancer effects | – |
| COc1ccc2c3c([nH]c2c1)C(C)=NCC3 [harmaline] | demonstrated anticancer effects | demonstrated anticancer effects | demonstrated anticancer effects | – |
| COc1ccc(CO)cc1O [isovanillyl alcohol] | demonstrated anticancer effects | demonstrated anticancer effects | demonstrated anticancer effects | – |
| Cc1nccc2c1[nH]c1cc(O)ccc12.Cl [harmole hydrochloride] | demonstrated anticancer effects | demonstrated anticancer effects | demonstrated anticancer effects | – |
| COc1ccc(C(=O)O)cc1O [isovanillic acid] | demonstrated anticancer effects | demonstrated anticancer effects | demonstrated anticancer effects | – |
| COc1ccc2c3c([nH]c2c1)[C@@H](C)NCC3 [tetrahydro-harmine] | demonstrated anticancer effects | demonstrated anticancer effects | demonstrated anticancer effects | – |
| COc1cc(C=O)ccc1O [vanillin] | demonstrated anticancer effects | demonstrated anticancer effects | demonstrated anticancer effects | – |

— patent US20160106721A1, “HUMAN THERAPEUTIC AGENTS” (Life Plus, LLC, priority 2014, published 2016)
